In publication PMC12750388, “Coumarin-1,2,3-Triazole Conjugates as Molecular Scaffolds for the Selective Induction of ROS-Driven Apoptosis in Cancer Cells in the Development of Pyruvate Kinase M2 Inhibitors” (ACS Omega, 2025):

How the values were obtained:
[1] = tested on: SCC-25; assay: MTT cell viability assay, SCC-25; format: cell-based, human; settings: for SI SCC-25: IC50 human gingival fibroblast / IC50 SCC-25; for IC50: MTT, 48 h
Method: (§1) The viability of SCC cell lines and primary human fibroblast cells was evaluated using the MTT assay to determine half maximal inhibitory concentration (IC50). Briefly, cells were grown in triplicate in 96-well plates (5 × 10^3 cells/well) until confluence. Then the medium was removed, fresh medium was added, and the cells were returned to the incubator in the presence of different compounds. DMSO at the same concentrations was used as a 100% cell viability control. After 48 h, cells were incubated with 5 mg/mL MTT reagent (3-(4,5-dimethyl-2-thiazolyl)-2,5-diphenyl-2-H-tetrazolium bromide) (Sigma-Aldrich Co., St. Louis, MO, USA) for 3.5 h. After that, formazan crystals were dissolved in MTT solvent solution (DMSO/methanol 1:1 v/v), and the absorbance at 560 nm was evaluated using an EPOCH microplate spectrophotometer (BioTek Instruments, Winooski, VT, USA) with the background absorbance at 670 nm subtracted. Each of the 12 compounds (7a–7l) was tested at six different concentrations, ranging from 6.25 to 200 μM in cancer and normal cell lines. Control (carboplatin) was tested at six different concentrations ranging from 25 μM to 800 μM in cancer cells and from 50 μM to 1600 μM in normal cells.
(§2) Half-maximal inhibitory concentration (IC50) values were obtained from the MTT assay of at least three independent replicates through nonlinear regression analysis using GraphPad Prism 5.0 software (Intuitive Software for Science, San Diego, CA, USA). Data were presented as means ± standard deviation (SD). A log dose–response curve (inhibitor vs response) using the least-squares method was used to determine the IC50 and SD from the data. The selectivity index (SI) was calculated as the ratio between the IC50 in normal cells and the IC50 in cancer cells, obtained by dividing the IC50 of normal cells by the IC50 of cancer cells.

[2] = tested on: Primary Gingival Fibroblast; assay: MTT cell viability assay, normal cells; format: cell-based, human; settings: for IC50: MTT, 48 h, normal cells; for Average SI: average of SI for SCC-9, SCC-4 and SCC-25 versus gingival fibroblast
Method: as §1, §2

[3] = tested on: SCC-4; assay: MTT cell viability assay, SCC-4; format: cell-based, human; settings: for SI SCC-4: IC50 human gingival fibroblast / IC50 SCC-4; for IC50: MTT, 48 h
Method: as §1, §2

[4] = tested on: erythrocytes; assay: Hemolysis assay; format: cell-based; settings: human erythrocytes, 300 μM
Method: A hemolysis assay to evaluate surfactant effects of tested substances was performed using human blood approved by the Research Ethics Committee of Universidade Federal Fluminense (CAAE: 43134721.4.0000.5626). Erythrocytes are isolated upon three repeated centrifugation cycles at 1500 rpm for 15 min. Between each cycle of centrifugation, supernatant was removed, and a pH 7.5 PBS (phosphate-buffered saline) solution supplemented with 10 mM glucose was added to remove lysed erythrocytes. The number of cells was determined in an Automatic Cell Counter (Thermo Fisher, Waltham, MA, USA). Erythrocytes were then plated in 96-well plates at a concentration of 4 × 10^8 cells/well in triplicates, and 10 μL of compounds were added at a final concentration of 300 μM in PBS with glucose (final volume 100 μL). Ten μL of PBS was used as a negative control, and 10 μL of PBS with 0.1% Triton X-100 was used as a positive control. Data reading was performed with EPOCH (BioTek Instruments, Winooski, VT, USA) at an absorbance of 540 nm.

[5] = tested on: SCC-9 cell line; assay: MTT cell viability assay, SCC-9; format: cell-based, human; settings: for SI SCC-9: IC50 human gingival fibroblast / IC50 SCC-9; for IC50: MTT, 48 h
Method: as §1, §2

[6] = tested on: SCC-9 cells; assay: MTT cell viability with N-acetyl-L-cysteine pretreatment; format: cell-based, human; settings: SCC-9, 48 h; 7f 1 × IC50, menadione 20 μM
Method: The production of reactive oxygen species (ROS) was assessed by the detection of hydrogen peroxide (H2O2) using the ROS-Glo H2O2 assay kit (Promega Corporation, Madison, WI, USA; G8820). […] A plate with wells without cells was used as a control. Cells and cell-free wells remained in treatment at times of interest, and 2 h before completion of the times, well volumes were removed to reduce to 40 μL per well. Then the positive control of menadione (Sigma-Aldrich Co., St. Louis, MO, USA), a polycyclic aromatic ketone based on 1,4-naphthoquinone, was used to treat its respective well, and H2O2 substrate from the kit was added for all treatments, followed by the incubation of the plate for the remaining 2 h. Then the detection solution was added, and the plates remained at room temperature for 20 min, following the reading in the TD 20/20 luminometer (Turner Designs, Sunnyvale, CA, USA). The reading of bioluminescence detected is indicated as arbitrary units (a.u.). Additionally, the cell viability was assessed through pretreatment of cells with 10 mM N-acetyl-L-cysteine (NAC) (Sigma-Aldrich Co., St. Louis, MO, USA) for 2 h. […] At the end of the time, the MTT cell viability assay was performed.

For `N.N.O=C([O-])C1(C(=O)[O-])CCC1.[Pt+2]` [Carboplatin, reference compound], the “SI SCC-25” value [1] was 1.40, the IC50 [1] was 249 µM and the IC50 [2] was 348 µM. The “Average SI” value [2] was 2.05, the “SI SCC-4” value [3] was 2.45 and the IC50 [3] was 142 µM. The “hemolytic activity / membrane integrity” value [4] was “neither carboplatin nor PBS affected the membrane integrity”, the “SI SCC-9” value [5] was 2.31 and the IC50 [5] was 150 µM.
`O=C1C=C(NCc2cn(CCOc3cc(=O)oc4ccccc34)nn2)C(=O)c2ccccc21` [Compound 7a, 2-(((1-(2-((2-Oxo-2H-chromen-4-yl)oxy)ethyl)-1H-1,2,3-triazol-4-yl)methyl)amino) naphthalene-1,4-dione] was tested, and the IC50 ([5]; Homo sapiens, SCC-9) was greater than 200 µM.
With `O=C1C=C(OCc2cn(CCOc3cc(=O)oc4ccccc34)nn2)C(=O)c2ccccc21` [Compound 7b, 2-((1-(2-((2-Oxo-2H-chromen-4-yl)oxy)ethyl)-1H-1,2,3-triazol-4-yl)methoxy) naphthalene-1,4-dione] the IC50 ([5]; Homo sapiens, SCC-9) was greater than 200 µM.
For `CC(C)=CC1=C(OCc2cn(CCOc3cc(=O)oc4ccccc34)nn2)C(=O)c2ccccc2C1=O` [Compound 7c, 2-(2-Methylprop-1-en-1-yl)-3-((1-(2-((2-oxo-2H-chromen-4-yl)oxy)ethyl)-1H-1,2,3-triazol-4-yl)methoxy)naphthalene-1,4-dione], the IC50 ([1]; Homo sapiens, SCC-25) was 28.5 µM, the “SI SCC-25” value [1] was 1.08 and the IC50 ([2]; Homo sapiens, Fibroblast) was 30.9 µM. For the same compound, the “Average SI” value [2] was 1.32, the IC50 ([3]; Homo sapiens, SCC-4) was 17 µM and the “SI SCC-4” value [3] was 1.82. The IC50 ([5]; Homo sapiens, SCC-9) was 28.9 µM and the “SI SCC-9” value [5] was 1.07.
Compound `CC(C)=CCC1=C(OCc2cn(CCOc3cc(=O)oc4ccccc34)nn2)C(=O)c2ccccc2C1=O` [Compound 7d, 2-(3-Methylbut-2-en-1-yl)-3-((1-(2-((2-oxo-2H-chromen-4-yl)oxy)ethyl)-1H-1,2,3-triazol-4-yl)methoxy)naphthalene-1,4-dione] has an IC50 ([5]; Homo sapiens, SCC-9) greater than 150 µM.
Compound `O=C1C=C(NCc2cn(CCCOc3cc(=O)oc4ccccc34)nn2)C(=O)c2ccccc21` [Compound 7e, 2-(((1-(3-((2-Oxo-2H-chromen-4-yl)oxy)propyl)-1H-1,2,3-triazol-4-yl)methyl)amino) naphthalene-1,4-dione] has an IC50 ([5]; Homo sapiens, SCC-9) greater than 150 µM.
`O=c1cc(OCCCn2cc(COc3cc(=O)oc4ccccc34)nn2)c2ccccc2o1` [Compound 7g, 4-(3-(4-(((2-Oxo-2H-chromen-4-yl)oxy)methyl)-1H-1,2,3-triazol-1-yl)propoxy)-2H-chromen-2-one] was tested, and the IC50 ([5]; Homo sapiens, SCC-9) was greater than 150 µM.
`CC(=O)OCc1cn(CCCOc2cc(=O)oc3ccccc23)nn1` [Compound 7h, (1-(3-((2-Oxo-2H-chromen-4-yl)oxy)propyl)-1H-1,2,3-triazol-4-yl)methyl acetate] was tested, and the IC50 ([5]; Homo sapiens, SCC-9) was greater than 200 µM.
`O=c1cc(OCCn2cc(-c3ccccc3)nn2)c2ccccc2o1` [Compound 7i, 4-(2-(4-Phenyl-1H-1,2,3-triazol-1-yl)ethoxy)-2H-chromen-2-one] gave an IC50 ([5]; Homo sapiens, SCC-9) greater than 200 µM.
`CCCCCCc1cn(CCOc2cc(=O)oc3ccccc23)nn1` [Compound 7j, 4-(2-(4-Hexyl-1H-1,2,3-triazol-1-yl)ethoxy)-2H-chromen-2-one] gave an IC50 ([5]; Homo sapiens, SCC-9) greater than 200 µM.
With `CCCCCCc1cn(CCCOc2cc(=O)oc3ccccc23)nn1` [Compound 7l, 4-(3-(4-Hexyl-1H-1,2,3-triazol-1-yl)propoxy)-2H-chromen-2-one] the IC50 ([5]; Homo sapiens, SCC-9) was greater than 150 µM.
In the case of `CC1=CC(=O)c2ccccc2C1=O` [menadione, reference compound], the “cell viability in the presence of 10 mM N-acetyl-L-cysteine (NAC)” value [6] is reported as “NAC protected cell death”.
